Source: publication PMC11989212, “Experimental Conditions to Retrieve Intrinsic Cooperativity α Directly from Single Binding Assay Data Exemplified by the Ternary Complex Formation of FKBP12, MAPRE1 and Macrocyclic Molecular Glues” (International Journal of Molecular Sciences, 2025)
Where two headings read alike, the source gives them in different places.

Columns and labels:
[1] = test system: FKBP12:R,S-SLF-X:MAPRE1 ternary complex; set-up: method as in PMID 40059881; details: TR-FRET proximity assay, reported earlier; cited from earlier work
FKBP12 [2] = molecular target: T1, FKBP12 (Homo sapiens, UniProt P62942); set-up: method as in PMID 40059881; details: TR-FRET competitive binding assay from previous work; read-out: EC50_FKBP12; cited from earlier work
T1 sequence (P62942 whole entry, species assumed): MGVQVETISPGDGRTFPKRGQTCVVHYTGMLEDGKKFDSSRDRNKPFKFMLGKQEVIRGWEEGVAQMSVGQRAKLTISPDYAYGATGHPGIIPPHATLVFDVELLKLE

[3] = molecular target: T2, MAPRE1 in the presence of FKBP12 (Homo sapiens, UniProt P62942+Q15691); assay: Spectral shift target engagement assay, binding to MAPRE1 in the presence of 10 μM FKBP12 (ternary); details: for EC50: 5 nM MAPRE1-NHS, 10 μM FKBP12, read-out: EC50 of the %Tbound, ternary curve; for Ratio [Ctot]/KC,1: [Ctot] = 10 μM FKBP12; for 100 × (EC50 %Tbound ternary − 0.5 [Ttot] − KT,2)/KT,2: difference between EC50 of the %Tbound, ternary curve and KT,2; for 100 × (EC50 %Tbound ternary − 0.5 [Ttot] − KT,2)/KT,2 / Intrinsic cooperativity α: [Ttot] = 5 nM; for Intrinsic cooperativity α: from KC,1, KT,1 and EC50 of the %Tbound, ternary curve with the mathematical model, [Ctot] = 10,000 nM; for Kd: ternary Kd, model-based ([CL] at [Ltot] = EC50), read-out: KT,2
T2 construct: His-tag (N)
T2 sequence (P62942 whole entry, one chain of several): as the sequence (P62942 whole entry, species assumed) above
Description: (§1) Our method of choice is the spectral shift method, which monitors binding events on the target isothermally and in equilibrium via an environment-sensitive near-infrared fluorophore. In the case of target engagement, either the proximity of the ligand towards the dye or structural changes occurring in the target as a result of binding lead to a change in the chemical environment of the fluorophore. Those changes affect the physiochemical properties of the reporter fluorophore and translate into either blue or red shifts (or peak broadening) of emission peaks upon ligand binding, which can be sensitively monitored by simultaneously recording the fluorescence at two wavelengths (i.e., at 650 nm and 670 nm). Calculating the ratio between the two fluorescence channels then allows to monitor subtle emission shifts that occur as a result of target engagement. Affinity measurements can then be performed by recording the spectral shift as a function of ligand concentration.
(§2) Binding study through MAPRE1: MAPRE1 was labeled via lysines using an NHS-conjugated dye. The final concentration of MAPRE1NHS (referring to [Ttot]) was 5 nM. Compounds could be titrated up to a concentration of 200 μM (referring to [Ltot]). […] However more accuracy could only be achieved at higher ligand concentrations—ideally at full target saturation. However, this was experimentally infeasible due to assay conditions (i.e., the requirement of maintaining a certain DMSO concentration or avoiding solubility issues of the ligand). Although the determined KT,1 values of binding to MAPRE1 are only approximations, their relative ranking reflects the underlying differences in the affinity of the ligands L to MAPRE1. Performing these experiments in duplicates confirmed the high signal-to-noise ratio, i.e., there was no significant deviation between the two curves, indicating a high accuracy of the interpolated EC50 values. Due to the low [Ttot] = 5 nM, this value coincides with KT,1 (1.8 mM − 0.005 mM/2 ≈ 1.8 mM). […] Consequently, KT,2 corresponds to 173 nM and not 177.5 nM.
(§3) His-tagged FKBP12 was labeled using the His-Tag Labeling Kit RED-tris-NTA 2nd Generation (MO-L018; NanoTemper Technologies GmbH). The affinity between NTA dye and the His-tag of FKBP12 was determined as 7 nM. MAPRE1 was labeled using the Protein Labeling Kit RED-NHS 2nd Generation (MO-L011; NanoTemper Technologies GmbH). In brief, 10 µM of MAPRE1 was incubated with a 3-fold molar excess of fluorophore for 30 min. The unreacted fluorophore was removed by performing a size exclusion purification (B-column). Collecting the protein fraction yielded 1.8 µM labeled MAPRE1, with a degree of labeling of 0.8, as determined on a Nanodrop.
(§4) A 1:2 dilution series of all compounds (starting from the 10 mM stock concentration) was prepared in pure DMSO. Each concentration was diluted 25-fold with assay buffer (20 mM HEPES, pH 7.4, 150 mM NaCl, 1 mM DTT (all from Carl Roth, Karlsruhe, Germany), and 0.01% Pluronic F-127 (Sigma Aldrich, Taufkirchen, Germany)). Next, 10 µL from each of the prepared ligand dilutions was transferred into an empty well on a Dianthus Microwell Plate (DI-P001A). Another 10 µL of 2-fold concentrated labeled protein (either in the absence or the presence of 20 µM counter protein, both in assay buffer then yielded the final assay concentrations. Interaction measurements were prepared in duplicates for each condition. For binary interactions of compounds with MAPRE1, a final target concentration of 5 nM and a highest ligand concentration of 50 µM was prepared. For ternary interactions of compounds and MAPRE1 in the presence of 10 µM unlabeled FKBP12, the highest ligand concentration was increased to 200 µM, the highest concentration achievable while maintaining a constant 2% DMSO concentration. For all interactions measured via FKBP12, the target was prepared at a final concentration of 40 nM, supplemented with 5 nM NTA fluorophore. […]

[4] = molecular target: FKBP12 in the presence of MAPRE1 (Homo sapiens, UniProt P62942+Q15691); assay: Spectral shift target engagement assay, binding to FKBP12 in the presence of 10 μM MAPRE1 (ternary)
FKBP12 in the presence of MAPRE1, sequence (P62942 whole entry, one chain of several): as the sequence (P62942 whole entry, species assumed) above
Description: as §1
(§5) Binding studies through FKBP12: To monitor the binding of R,--SLF-11 by the stronger binding FKBP12 in the absence and in the presence of 10 μM MAPRE1 via %Cbound, binary and %Cbound, ternary, respectively, the concentration of reversibly NTA-labeled FKBP12 was limited to [Ctot] = 40 nM. […] In contrast to the experimental setup in the previous two binding experiments with monitoring through the weaker binding protein MAPRE1, where the applied protein concentrations were optimally chosen, this is not the case for the binding experiment through the stronger binder FKBP12. First of all, the applied excess of T with [Ttot] = 10 μM is roughly 20000-fold off of the proposed 100 times KT,1 threshold, which would correspond to 180 mM. Only under such excess conditions of T can the equilibrium of forming TL under the constraint that all ligand L is bound to T be reached to ensure that [Ltot] approaches the “ligand” concentration [TL]. […] If KC,2 is sufficiently high, the 20 nM deviation to correct for the protein concentration could be neglected. However, the resulting calculated value for KC,2 is 0.023 nM, accounting for the cooperativity α = 10,405 and KC,1 = 234 nM as derived by the MAPRE1 experiment. This value is far below the applied protein concentration of [Ctot] = 40 nM and makes it infeasible to estimate KC,2 from the EC50 of the %Cbound, ternary curve. Consequently, the EC50 shifts, meaning the apparent cooperativity, from monitoring the binding by the stronger binding protein C are diverging from the underlying intrinsic cooperativity α. […] The deviation of calculated (254 nM/24.2 nM = 10.5) and measured apparent cooperativity (254 nM/66 nM = 3.8) can be explained by a negative cooperativity induced by the His6-NTA tag of FKBP12. Studies to lower [Ctot] and identify a better position for the spectral shift tag on FKBP12 are ongoing (Figure 6a).
as §3
(§6) A 1:2 dilution series of all compounds (starting from the 10 mM stock concentration) was prepared in pure DMSO. Each concentration was diluted 25-fold with assay buffer (20 mM HEPES, pH 7.4, 150 mM NaCl, 1 mM DTT (all from Carl Roth, Karlsruhe, Germany), and 0.01% Pluronic F-127 (Sigma Aldrich, Taufkirchen, Germany)). Next, 10 µL from each of the prepared ligand dilutions was transferred into an empty well on a Dianthus Microwell Plate (DI-P001A). […]

MAPRE1 [5] = molecular target: T3, MAPRE1 (Homo sapiens, UniProt Q15691); set-up: method as in PMID 40059881; details: previous NMR studies; read-out: affinity for MAPRE1; cited from earlier work
T3 construct: His-tag (N)
T3 sequence (Q15691 1-268): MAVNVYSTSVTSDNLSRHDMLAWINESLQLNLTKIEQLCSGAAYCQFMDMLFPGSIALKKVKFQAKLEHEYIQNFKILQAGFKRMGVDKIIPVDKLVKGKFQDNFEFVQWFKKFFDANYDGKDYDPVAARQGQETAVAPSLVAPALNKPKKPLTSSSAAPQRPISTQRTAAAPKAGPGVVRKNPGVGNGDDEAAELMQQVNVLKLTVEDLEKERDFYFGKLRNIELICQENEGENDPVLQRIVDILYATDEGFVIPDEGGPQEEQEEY

FKBP12 [6] = molecular target: T1, FKBP12; assay: Spectral shift target engagement assay, binary binding to FKBP12; details: 40 nM FKBP12-NTA; for EC50: no MAPRE1, read-out: EC50 of the %Cbound, binary curve; for Kd: KC,1 = EC50 − [Ctot]/2
Description: as §1, §5, §3, §6

MAPRE1 [7] = molecular target: T3, MAPRE1; assay: Spectral shift target engagement assay, binary binding to MAPRE1; details: 5 nM MAPRE1-NHS, interpolated
Description: as §1, §2, §3, §4

[8] = 40 nM FKBP12-NTA, 10 μM MAPRE1, read-out: EC50 of the %Cbound, ternary curve (measured)
[9] = calculated with the model using α from MAPRE1 binding, read-out: calc EC50 of the %Cbound, ternary curve

SMILES | TR-FRET Recruitment Assay (%Amax) [1] [%] | EC50 (FKBP12 [2]) [µM] | EC50 [3] [µM] | Ratio [Ctot]/KC,1 [3] | 100 × (EC50 %Tbound ternary − 0.5 [Ttot] − KT,2)/KT,2 [3] [%] | Intrinsic cooperativity α [3] | Kd [3] [µM] | EC50 [4, 8] [µM] | EC50 [4, 9] [µM] | Kd (MAPRE1 [5]) [µM] | EC50 (FKBP12 [6]) [µM] | Kd (FKBP12 [6]) [µM] | EC50 (MAPRE1 [7]; no FKBP12, read-out: EC50 of the %Tbound, binary curve) [µM] | Kd (MAPRE1 [7]; approximation, read-out: Spectral Shift Binary MAPRE1 KT,1) [µM]
C=C1CCN2C(=O)COc3cccc(c3)C(CCc3ccc(OC)c(OC)c3)OC(=O)C3CCCCN3C(=O)C(=O)C(C)(C)COC(=O)C(CCOC)NC(=O)C2C1 (stereo not shown) [R,S-SLF-9] | 51 | – | – | – | – | – | – | – | – | – | – | – | – | –
C=C1CCN2C(=O)COc3cccc(c3)C(CCc3ccc(OC)c(OC)c3)OC(=O)C3CCCCN3C(=O)C(=O)C(C)(C)COC(=O)C(C)NC(=O)C2C1 (stereo not shown) [R,S-SLF-1a] | 51 | 0.23 | 1.03 | 476 | 0.3 | 1951 | 1.02 | 0.045 | 0.02 | > 250 | 0.041 | 0.021 | – | –
C=C1CCN2C(=O)COc3cccc(c3)C(CCc3ccc(OC)c(OC)c3)OC(=O)C3CCCCN3C(=O)C(=O)C(C)(C)COC(=O)C(CC)NC(=O)C2C1 (stereo not shown) [R,S-SLF-3] | 93 | – | 0.827 | 152 | 0.8 | 2200 | 0.818 | 0.049 | 0.025 | – | 0.086 | 0.066 | > 200 | > 200
C=C1CCN2C(=O)COc3cccc(c3)C(CCc3ccc(OC)c(OC)c3)OC(=O)C3CCCCN3C(=O)C(=O)C(C)(C)COC(=O)C(C)(C)NC(=O)C2C1 (stereo not shown) [R,--SLF-10] | 135 | – | 0.377 | 93 | 1.2 | 5405 | 0.37 | 0.04 | – | – | 0.128 | 0.108 | – | –
